According to ChEMBL document CHEMBL3507680, “University of Dundee, Gates Library screen for HepG2 cell viability”:

Experiment: Human HepG2 cell viability assay in 384 well format
Type: toxicity, cell-based
Set-up: dose 125 nL, time 70.5 hour; cytotoxicity at 70.5 h: concentration not given beside the values
Conditions: HepG2 cells, read-out: Inhibition

Row | SMILES | cytotoxicity at 70.5 h [%]
1 | Cc1ccc(OCC(O)CN2CCC(Cn3cccn3)CC2)cc1 (stereo not drawn) | -1.48
2 | CC(C)c1cc(NC(=O)CN2CCC(N3CCNC3=O)CC2)on1 | -3.58
3 | Clc1ccc(OCCCN2CCN(c3cnccn3)CC2)cc1 | -6.78
4 | CCc1nc(C)c(C(=O)NCCN2CCN(C(C)=O)CC2)s1 | -7.15
5 | NC(=O)C1CCC(NC(=O)COc2ccc(Cl)c(Cl)c2)CC1 (stereo not drawn) | 2.5
6 | Cc1cnn(CC2CCCCN2C(=O)c2cc(Cl)c[nH]2)c1 (stereo not drawn) | 7.01
7 | COc1c(C2CCCN2C(=O)c2c[nH]c3ncccc23)c(C)nn1C (stereo not drawn) | -5.62
8 | COc1ccccc1OCC(=O)NS(=O)(=O)c1ccccc1Br | 0.476
9 | CCc1nc(C)c(C(=O)NCCN2CCC(C)CC2)s1 | 0.72
10 | Cc1cc(N2CCC(Cc3ccccc3)CC2)nc(-c2ccncc2)n1 | -10.7
11 | CCN(Cc1cccc2c1OCO2)C(=O)Nc1ccncc1 | 5.81
12 | O=S(=O)(CCNC1CCc2ncnn2C1)c1ccccc1 (stereo not drawn) | -2.34
13 | Cc1cc(C(=O)NCC(C)N2CCc3ccccc32)no1 (stereo not drawn) | 15.4
14 | Cc1cc(CN2CCN(C(C)c3nc(C4CC4)no3)CC2)no1 (stereo not drawn) | -4.52
15 | O=C(COCC1CC1)N1CCCC(n2cccn2)C1 (stereo not drawn) | 2.78
16 | CC(NC(=O)N(C)Cc1ccc(Cl)s1)c1ccccn1 (stereo not drawn) | 1.2
17 | CNS(=O)(=O)c1cccc(CNC(=O)c2c(C)oc(C)c2C)c1 | 22.6
18 | O=C(NCc1nnc2n1CCCC2)N1CCc2ccccc2C1 | -2.97
19 | O=C(CCNc1ncccn1)NCCc1ccn(-c2ccccc2)n1 | 22
20 | CC(C)c1nnc(NC(=O)NCc2ccc(CO)c(F)c2)s1 | -13.4

Row | SMILES | cytotoxicity at 70.5 h [%]
21 | COCCNC(=O)NCCc1ccn(-c2ccccc2)n1 | -10.9
22 | COc1ccc(CN2CCCC2Cn2nc(C)nc2C)cc1F (stereo not drawn) | -18.3
23 | NC(=O)c1csc(C(=O)N2CCCC(n3ccnc3)C2)c1 (stereo not drawn) | -8.21
24 | Cn1ccnc1CN1CCCCC1Cn1cccn1 (stereo not drawn) | 11
25 | Cc1cnn(CC2CCCN2C(=O)c2ccc3cc[nH]c3c2)c1 (stereo not drawn) | 0.784
26 | Cc1noc(C)c1CNc1cc(N2CCCC2CO)ncn1 (stereo not drawn) | -5.89
27 | O=C(CCOc1cccc(F)c1)N1CCCC(n2cncn2)C1 (stereo not drawn) | -6.87
28 | c1ccc(-c2ncc(CNC3CCc4ncnn4C3)cn2)cc1 (stereo not drawn) | -11
29 | CC(C)Cc1cc(C(=O)N2CCCC(n3cncn3)C2)[nH]n1 (stereo not drawn) | -7.4
30 | Cc1csc(C2CCCCN2C(=O)CN(C)C2CC2)n1 (stereo not drawn) | -8.97
31 | Cc1cnn(CC2CCCCN2Cc2nnc(C3CC3)n2C)c1 (stereo not drawn) | -6.92
32 | CCOC1CCCN(C(=O)NCCc2ccn(-c3ccccc3)n2)C1 (stereo not drawn) | 9.56
33 | Cc1cnc(CN(C)CC2CCCN2c2cccnn2)cn1 (stereo not drawn) | 14.1
34 | CCn1cc(NC(=O)NCC(O)CN2CCc3ccccc3C2)cn1 (stereo not drawn) | 11.8
35 | CC(=O)Nc1nc(CN2CCCC2Cn2cc(C)cn2)cs1 (stereo not drawn) | 30.3
36 | CC(=O)Nc1nc(CN2CCOC(Cn3cc(C)cn3)C2)cs1 (stereo not drawn) | -7.56
37 | O=C(NCCc1ccn(-c2ccccc2)n1)N1CCC1 | -2.97
38 | Cn1ccnc1CN1CCN(CC(O)c2cccc(F)c2)CC1 (stereo not drawn) | -12.2
39 | CCN1CC(C(=O)NCc2ccccc2-n2cccn2)CC1=O (stereo not drawn) | -10.2
40 | CCN(Cc1cccc(Cl)c1)Cc1nc2c(cnn2C)c(=O)[nH]1 | -7.7

Row | SMILES | cytotoxicity at 70.5 h [%]
41 | CC(C)c1nc2c(n1C)CCN(CC(=O)Nc1nccs1)C2 | -24.8
42 | Cc1ccc(NC(=O)N2CCC(NC(=O)c3ccc(C)o3)CC2)cc1 | -11.5
43 | CS(=O)(=O)N1CCN(CC(O)COc2ccc(F)cc2)CC1 (stereo not drawn) | -11.1
44 | O=C(c1cc(F)ccc1F)C1CCN(C(=O)c2ccc(=O)[nH]n2)CC1 | -9.24
45 | CCN1CCN(C2CCN(Cc3nnc(C(C)(C)C)o3)CC2)C1=O | -11.1
46 | Cc1cnn(CC2CCCN2C(=O)c2cc3ccccc3[nH]c2=O)c1 (stereo not drawn) | 8.93
47 | CC(=O)Nc1nc(C(=O)N2CCCC2Cn2cc(C)cn2)cs1 (stereo not drawn) | -10.5
48 | Cc1cnn(CC2CCCCN2C(=O)c2ccc3[nH]nnc3c2)c1 (stereo not drawn) | -11.6
49 | Cc1nnc(CN2CCN(CC(O)c3cccc(F)c3)CC2)n1C (stereo not drawn) | -15.6
50 | CCc1nc(C2CCCN(C(=O)c3ccc4c(c3)nnn4C)C2)no1 (stereo not drawn) | -7.83
51 | CCc1n[nH]c(C2CN(C(=O)c3cnc[nH]3)CCO2)n1 (stereo not drawn) | -15.6
52 | O=C(c1cc(F)ccc1F)C1CCN(C(=O)c2cccnc2O)CC1 | -16.4
53 | O=C(NCCn1ccnc1)NCC(c1ccco1)N1CCCCC1 (stereo not drawn) | -9.78
54 | CC1(C)CN(C(=O)NCCc2ccn(-c3ccccc3)n2)CCO1 | -12.4
55 | COc1cccc(CCC(=O)N2CCCCC2Cn2cccn2)c1 (stereo not drawn) | -11.2
56 | CCn1ccnc1CN1CCCN(C(=O)Cc2ccc(C)nc2)CC1 | -14.5
57 | CCn1ccnc1CN1CCCN(C(=O)Cn2nc(C)cc2C)CC1 | -19.3
58 | Cc1nc(CN2CCOC(Cn3cncn3)C2)nc2ccccc12 (stereo not drawn) | -16.8
